Experimental data reported in publication PMC3469269 (ACS medicinal chemistry letters, 2012).

What was measured:
hDAT = hDAT (Homo sapiens, UniProt Q01959); assay: Inhibition of [3H]-WIN-35,428 binding to hDAT in N2A neuroblastoma cells
DAT [1] = settings: ref Vaughan et al., unpublished observations; cited from earlier work
DAT [2] = settings: cited from earlier work

Chain of hDAT (Q01959 whole entry): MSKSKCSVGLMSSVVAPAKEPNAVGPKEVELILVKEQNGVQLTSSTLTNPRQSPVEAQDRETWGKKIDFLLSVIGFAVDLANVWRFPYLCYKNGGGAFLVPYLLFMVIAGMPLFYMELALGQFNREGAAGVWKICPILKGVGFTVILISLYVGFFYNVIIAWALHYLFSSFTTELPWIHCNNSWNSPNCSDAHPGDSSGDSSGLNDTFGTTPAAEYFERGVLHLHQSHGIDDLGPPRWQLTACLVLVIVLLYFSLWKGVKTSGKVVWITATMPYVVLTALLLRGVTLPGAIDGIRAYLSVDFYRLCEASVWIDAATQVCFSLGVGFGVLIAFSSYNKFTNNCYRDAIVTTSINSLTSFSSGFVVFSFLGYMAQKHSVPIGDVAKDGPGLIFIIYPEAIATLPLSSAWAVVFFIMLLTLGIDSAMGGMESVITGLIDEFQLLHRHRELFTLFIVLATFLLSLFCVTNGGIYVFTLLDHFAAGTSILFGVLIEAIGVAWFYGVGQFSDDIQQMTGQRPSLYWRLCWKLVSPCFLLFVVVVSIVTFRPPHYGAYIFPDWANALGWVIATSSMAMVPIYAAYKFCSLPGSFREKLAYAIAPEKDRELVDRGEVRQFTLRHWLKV

COC(=O)[C@H](c1ccc(N=[N+]=[N-])c(I)c1)[C@H]1CCCCN1 (racemic) [(±)-6, (±)-threo-4-Azido-3-iodomethylphenidate]
fold increase in hDAT affinity (hDAT; relative to (±)-14 (aniline replaced by azide)): ~ 2.3 fold

COC(=O)[C@H](c1ccc(N)c(I)c1)[C@H]1CCCCN1 (racemic) [(±)-14]
fold decrease in binding affinity for hDAT (hDAT; relative to aniline (±)-13 (addition of 3-I)): ~ 1.4 fold

COC(=O)C1C(c2ccc(N=[N+]=[N-])c(I)c2)CC2CCC1N2C (stereo not shown) [compound 5, 3-(4′-azido-3′-iodo-phenyl)-8-methyl-8-aza-bicyclo-[3.2.1]octane-2-carboxylic acid methyl ester]
labeling of the DAT in immunoprecipitation and proteolysis experiments (DAT [1]): fails to label the DAT | binding to the DAT (DAT [2]): high affinity, wash-resistant binding
